Reference: PubChem BioAssay (NCI)
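Briefly, cells in 96-well plates were exposed to five compound concentrations for 48 h, and endpoints were estimated by linear interpolation. At the GI50, growth is halved. Definition used: TGI = concentration required for complete inhibition of growth.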

What was measured:
Assay in all cases: NCI tumour cell line growth inhibition, 48 h
SK-MEL-2 melanoma = test system: SK-MEL-2 melanoma
SNB-75 CNS = test system: SNB-75 CNS
HCT-116 colon = test system: HCT-116 colon
IGROV1 ovarian = test system: IGROV1 ovarian
MALME-3M melanoma = test system: MALME-3M melanoma
MCF7 breast = test system: MCF7 breast
MDA-N = test system: MDA-N
RPMI-8226 leukemia = test system: RPMI-8226 leukemia
RXF 393 renal = test system: RXF 393 renal
SK-MEL-5 melanoma = test system: SK-MEL-5 melanoma

Row | Structure (SMILES) | GI50 (SK-MEL-2 melanoma) | TGI (SK-MEL-2 melanoma) | GI50 (SNB-75 CNS) | TGI (SNB-75 CNS) | TGI (HCT-116 colon) | TGI (IGROV1 ovarian) | TGI (MALME-3M melanoma) | TGI (MCF7 breast) | TGI (MDA-N) | TGI (RPMI-8226 leukemia) | TGI (RXF 393 renal) | TGI (SK-MEL-5 melanoma) | GI50 (HCT-116 colon) | GI50 (IGROV1 ovarian) | GI50 (MALME-3M melanoma) | GI50 (MCF7 breast) | GI50 (RPMI-8226 leukemia) | GI50 (RXF 393 renal) | GI50 (SK-MEL-5 melanoma)
1 | COc1ccc2c(c1)c(-c1nc(-c3c[nH]c4ncccc34)cs1)cn2CCCCN1CCCCC1 | 1.8 µM | 3.54 µM | 1.27 µM | 2.68 µM |  |  |  |  |  |  |  |  |  |  |  |  |  |  | 
2 | CCC(=O)OCN(C)c1nc(N(C)COC(=O)CC)nc(N(C)COC(=O)CC)n1 |  | 42 µM |  | > 100 µM | 64 µM | > 100 µM | > 100 µM | > 100 µM | > 100 µM | 76 µM | 25.5 µM | 52.5 µM |  |  |  |  |  |  | 
3 | O=C1c2ccccc2OCC12OC21C=CC(Cl)=CC1 (configuration not stated) |  | 59.1 µM |  |  | 43.6 µM | > 100 µM | 44.8 µM | > 100 µM | 43.8 µM | 47.4 µM | 46.8 µM | 28.3 µM |  |  |  |  |  |  | 
4 | N[C@H](Cc1ccc2oc3cc(=O)c4ccccc4c-3nc2c1)C(=O)O |  |  |  | > 100 µM | > 100 µM | > 100 µM | 38.5 µM | 65 µM | 38.1 µM | 83.8 µM | > 100 µM | 41.1 µM |  |  |  |  |  |  | 
5 | COC(=O)C1=C(OC)[C@H]2C#C/C=C\C#C[C@@H]3Nc4c(cc(O)c5c4C(=O)c4ccccc4C5=O)[C@]24O[C@@]34[C@H]1C |  | 0.206 µM |  | < 0.01 µM | 7.6 µM | 0.167 µM | 0.103 µM | 0.126 µM | 0.0113 µM | 0.0188 µM |  | < 0.0149 µM |  |  |  |  |  |  | 
6 | Cc1nc2ccc(S(=O)(=O)Nc3nccs3)cc2c(=O)n1NS(=O)(=O)c1nccs1 |  | > 100 µM |  | > 100 µM |  | > 100 µM | > 100 µM | > 100 µM | > 100 µM | > 100 µM | > 100 µM | > 100 µM |  |  |  |  |  |  | 
7 | O=C(CBr)c1ccc2cc(Br)c3ccccc3c2c1 |  | 45.1 µM |  | 72.8 µM | > 100 µM | 62.4 µM | 34.4 µM | 73.8 µM |  | > 100 µM | 38.7 µM | 30.2 µM |  |  |  |  |  |  | 
8 | CCCCC1C=Cn2c(=O)oc3c(OC(C)C)c(C)c(O)c1c32 (configuration not stated) |  | 5.07 µM |  | 4.83 µM | 7.07 µM | 10.1 µM | 4.1 µM | 1.81 µM | 9.67 µM | 11.8 µM |  | 6.59 µM |  |  |  |  |  |  | 
9 | O=C(N[C@@H](Cc1coc2ccccc12)B(O)O)[C@@H]1C[C@H]2CC[C@@H]1O2 | 6.08 µM | > 100 µM | 2.78 µM | 38.2 µM | 27.1 µM | > 100 µM | 20.8 µM | > 100 µM |  | 5.2 µM | 5.94 µM | 35.3 µM | 3.25 µM | 16.1 µM | 3.07 µM | 3.25 µM | 0.45 µM | 1.86 µM | 4.25 µM
10 | C(=Nc1ccc2c(c1)Cc1ccccc1-2)c1ccccn1 |  | > 100 µM |  | > 100 µM | > 100 µM | > 100 µM | > 100 µM |  | > 100 µM |  | > 100 µM | > 100 µM |  |  |  |  |  |  | 
11 | CN(C)CCCNc1ccc2ncn3c4ccc(O)cc4c(=O)c1c23 |  | 19.6 µM |  | 11.7 µM | 11.2 µM | 10.5 µM | 16 µM | 1.27 µM | 17.6 µM | 18.2 µM | 2.91 µM | 9.57 µM |  |  |  |  |  |  | 
12 | CCCn1cnc2c(SCc3ccc(Cl)cc3)nc(N)nc21 |  | 41.3 µM |  | 88.7 µM | 44.2 µM | > 100 µM | 65.8 µM | > 100 µM | 55 µM | 40.2 µM | > 100 µM | 33.4 µM |  |  |  |  |  |  | 
13 | CCCO[C@@H]1[C@@H](OC(C)=O)[C@@H](OC(C)=O)C(C)(C)/C=C/[C@H](C)C(=O)[C@@]2(OC(C)=O)C[C@@](C)(OC(C)=O)[C@H](OC(C)=O)[C@@H]2[C@H]2OC(=O)CC[C@@]12OC(=O)c1ccccc1 |  | > 25 µM |  | > 25 µM | > 25 µM | > 25 µM | > 25 µM | > 25 µM | > 25 µM |  | > 25 µM | > 25 µM |  |  |  |  |  |  | 
14 | O=c1cc(CF)[nH]c(=S)[nH]1 |  |  |  | > 100 µM | > 100 µM | > 100 µM | > 100 µM |  | > 100 µM |  | > 100 µM | > 100 µM |  |  |  |  |  |  | 
15 | C=CCCC1(C)CCCNC1=S (configuration not stated) |  | > 100 µM |  | > 100 µM | > 100 µM | > 100 µM | > 100 µM |  |  | > 100 µM | > 100 µM | > 100 µM |  |  |  |  |  |  | 
16 | CNC(C)C(O)c1ccc2oc3cc(=O)c4ccccc4c-3nc2c1 (configuration not stated) |  | 64.2 µM |  |  | 21.8 µM | > 100 µM | 19.9 µM | 41.7 µM |  | > 100 µM | 84.8 µM | 6.68 µM |  |  |  |  |  |  | 
17 | COc1ccc(C2COc3c(ccc(O)c3C)C2)cc1OC (configuration not stated) |  | 154 µM |  | 110 µM | 153 µM | > 200 µM | > 200 µM | > 200 µM |  | 166 µM | 131 µM | 24.6 µM |  |  |  |  |  |  | 
18 | CCOC(=O)c1sc2nc(SC)nc(Nc3ccc4c(c3)OCCO4)c2c1N |  | 33.7 µM |  |  | 42.1 µM | 78.6 µM | 30.5 µM | 23.6 µM | > 100 µM | 77.1 µM | 16.9 µM | 26.7 µM |  |  |  |  |  |  | 
19 | C/C(=N\NC(=S)N1CCCC1)c1nc2ncccc2[nH]1 |  | 46.8 µM |  | > 100 µM | 18.1 µM |  | 63.9 µM | 13.4 µM | > 100 µM | 39.4 µM |  | 2.93 µM |  |  |  |  |  |  | 
